Legend:
[1] = system: fatty acid synthesis in B. napus cells; assay: 14C-acetate / 14C-malonate labeling of lipids (feedback inhibition of fatty acid synthesis); assay type: cell-based, Brassica napus; details: for Relative 14C-acetate incorporation (% control): relative to a control sample without any Tweens, mean of three repeats ± SD
Procedure: All radioisotopes were obtained from American Radiolabeled Chemicals (St. Louis, Mo. USA). Labeling was conducted on cells 5 days after subculturing with a culture density of ˜20 mg FW mL^−1 and that had medium refreshed 16 h prior. For labeling, three 1 mL aliquots of cells were carefully removed from each flask and were labeled with either 0.2 μCi of 1,2-^14C-acetate (50-60 mCi mmol^−1) or 2-^14C-malonate (40-60 mCi mmol^−1) for 15 minutes at 25° C. with occasional shaking. Haloxyfop (Sigma) was dissolved in DMSO and added 30 min prior to labeling. Lipids were extracted and separated by TLC as described above. Radioactivity was detected by phosphorimaging and was quantified using ImageQuant software (GE Healthcare, Piscataway, N.J., USA). Incorporation of label into individual fatty acids was determined by making FAMEs as described above, separating the methyl esters by TLC as described in (Koo, Fulda, Browse and Ohlrogge 2005, Plant J, 44, 620-632) and measuring radioactivity by phosphorimaging.
Feedback inhibition of fatty acid synthesis was measured by the addition of a ^14C-acetate tracer. […] Sterol synthesis is dependent on acetyl-CoA and ATP, both of which are required for fatty acid synthesis. Therefore, if fatty acid synthesis is inhibited due to substrate limitation; so should be sterol biosynthesis. ^14C-acetate incorporation into sterols was unaffected by Tween-80 feeding, while incorporation into free fatty acids mirrored that of total lipids (FIG. 5), showing that the effect is restricted to fatty acid synthesis. […] Three hour time points were used for the remainder of this study to separate the period of maximum feedback inhibition from any lipid homeostatic mechanisms arising from the gross fatty acid compositional changes caused by long term Tween-80 feeding.
Plants contain plastidic and cytosolic ACCase and F AS enzyme systems, both of which are capable of incorporating ^14C-acetate into fatty acids. Comparing the distribution of label in individual fatty acid species can therefore provide information on the relative contribution of these pathways. […] The degree to which ^14C-acetate incorporation is inhibited by haloxyfop is proportional to cytosolic elongation activity, whereas haloxyfop-resistant incorporation is from the de nova pathway inside the plastid.
To separate these possibilities, we exploited the fact that exogenous malonate can be converted to malonyl-CoA and used by FAS, bypassing the ACCase reaction (Kannangara et al. 1973, Plant Physiol, 52, 156-161). If ACCase is the only point of inhibition then the rate of ^14C-malonate labeling of de novo fatty acids should be the same in cultures with or without Tween-80. […] Therefore ACCase, and not F AS, is inhibited by Tween-80 feeding. When combined, the data from FIG. 6 unambiguously identify plastidic ACCase as the target of Tween-80 induced feedback inhibition.

ACCase = ACCase enzyme assay on crude cell extracts; assay type: biochemical, Brassica napus
Procedure: All chemicals were obtained from Sigma and radioisotopes from American Radiolabeled Chemicals. ACCase activity was measured as the acetyl-CoA dependent incorporation of ^14C—NaHC03 into acid and stable products. Crude cell extracts were prepared by grinding fresh cells in 3 volumes (w/v) of 50 mM Tris-Cl, pH 7.5, 100 mM KCl, 5 mM MgCl2, 1 mM DTT, 0.1% TritonX-100, 10% glycerol, and plant protease inhibitor cocktail (Sigma). Homogenate was gently mixed on ice for 10 min and then centrifuged for 5 min at 3000 g. Desalting of extracts was done with PD-10 columns (GE Life Sciences). […] Reactions were initiated by the addition of 5 μlL cell extract and were stopped by the addition of 15 μL 12 N HCL. The contents were dried completely at 55° C. and the solids were resuspended in 30 μL water and counted by liquid scintillation spectroscopy. Minus acetyl-CoA controls were always included. Assays went for 30 min, except when measuring the effects of metabolites (10 min). Metabolites were added to the reaction immediately after cell extract to preserve labile thioester bonds. FFA stock solutions were made in ethanol and acyl-CoAs were suspended in water.

[2] = target: Brassica napus plastidic (heteromeric) acetyl-CoA carboxylase, endogenous enzyme in crude cell extracts (Brassica napus); assay: cell-based or functional assay
B. napus cells [3] = assay: Quantification of free fatty acid, acyl-ACP and acyl-CoA pools in cells; assay type: cell-based, Brassica napus; details: cells fed 13C-oleoyl-Tween, at 3 hours
Procedure: Free fatty acids were extracted from tissue by quenching ˜300 mg of frozen cells in 2 mL boiling isopropanol for 5 min. Once cooled, 2 mL of 0.9% NaCl was added and lipids were extracted twice with 4 mL of hexane. Neutral lipids were separated by TLC and free fatty acids were scraped, made into FAMEs, and analyzed by GC-FID or GC-MS as described above. Acyl-CoAs were extracted from ˜15 mg FW of cells and quantified as previously described (Larson and Graham 2001, Plant J, 25, 115-125). Acyl-ACPs were extracted and quantified as previously described (Kopka, Ohlrogge and Jaworski 1995, Anal Biochem, 224, 51-60) with the following modifications: 1) Internal standards used were 11:0-CoA (Sigma) and 17:0—ACP made from Spinach ACP as previously described (Broadwater and Fox 1999, Protein Expr Purif, 15, 314-326). 2) Fully dissolving TCA precipitated proteins required three extractions with MOPS buffer rather than just one.
1986 Plant Physiol, 82, 771-779). Free fatty acids can be activated by esterification to CoA or ACP before being deposited in cellular lipids. Steady state pools acyl-ACP and acyl-CoA as well as free fatty acids (FFA) were measured in cells fed Tween-80. After three hours of feeding, 18:1 FFA appeared where there was none detected in untreated cells (FIG. 9a). […] In a separate experiment designed to distinguish the incorporation of fatty acids from Tween from secondary effects of feedback inhibition, FFA and acylACPs were analyzed in cells fed ^13C-oleoyl-Tween. […] First, the in vivo concentrations of these intermediates were calculated based on the range of values in FIG. 9 and the water content of the cells. […] However, considering that acyl-ACPs are restricted to the plastid, the volume of which in developing embryos was determined to be 10% of the cell (Mansfield and Briarty 1992, Can J Bot, 70, 151-164), the estimate increased to 5-10 μM. […] Thioesterase activity was measured using the same conditions as the ACCase assay. […]

B. napus cells [4] = assay: Quantification of fatty acid uptake from 13C-oleoyl-Tween by B. napus cells; assay type: cell-based, Brassica napus; details: 10 mM 13C-oleoyl-Tween
Procedure: Lipids were extracted from up to 100 mg fresh weight of frozen cells by homogenizing twice in 500 μL of methanol:chloroform:formic acid (20:10:1 v/v) using glass beads. The combined organic solvent was extracted with 500 μL of 1 M KCl, 0.2 M H3PO4 and the organic phase was recovered, dried under N2, and resuspended in hexane. Lipid classes were separated by TLC using silica gel G TLC Uniplates (Analtech, Newark, Del., USA) with hexane:diethylether:acetic acid (80:20:1, v/v) for neutral lipids or with acetone:toluene:water (91:30:7 v/v) with 0.15 M ammonium sulfate impregnated plates for polar lipids. Loading was equivalent to 10 or 20 mg fresh weight. Lipids were visualized with iodine vapor.
Fatty acid quantification was done by analysis of fatty acid methyl esters (FAMEs). […] FAMEs resuspended in hexane were analyzed with an HP6890 gas chromatograph-flame ionization detector (Agilent Technologies) or an HP5890 gas chromatograph-mass spectrometer (Hewlett-Packard) fitted with 60 m×250 μm SP-2340 capillary columns (Supelco). […]
1-^13C-oleic acid was obtained from Cambridge Isotope Laboratories (Andover, Mass., USA). […] Lipid extraction and GC/MS was done as described above. ^13C-fatty acids were detected and quantified and corrected for natural isotope abundance as previously described (Schwender et al. 2003, J Biol Chem, 278, 29442-29453). […]

Compound: Tween-60
- Relative 14C-acetate incorporation (% control) [1]: 85.9 ± 3.4 % control

Compound: O=C(O)CCC(=O)C(=O)O [2-oxoglutarate]
- ACCase activity, difference between control and Tween-80 fed cultures (ACCase; in the presence of 5 mM 2-oxoglutarate): no differences

Compound: O=C(O)CC(=O)O [malonate]
- inhibition of 14C-acetate incorporation on malonate feeding ([1]; malonate feeding): does not cause inhibition

Compound: B. napus 18:1-ACP (18:1-Acyl Carrier Protein made from BnACP, GenBank:X13127.1, with 6x his-tag)
- ACCase activity in crude B. napus cell extracts (acetyl-CoA dependent incorporation of 14C-NaHCO3, 10 min assay) [2]: > 3 µM

Compound: 1-^13C-oleoyl-Tween
- percent of 18:1-ACP containing 13C-oleic acid (B. napus cells [3]): 46.2±4.2%
- percent of 18:1 FFA containing 13C-oleic acid (B. napus cells [3]): 99.1±2.2%
- 13C-18:1 as proportion of the total 18:1 (B. napus cells [4]; after three hours): about 10%
- proportion of 13C-label in 18-carbon fatty acids (B. napus cells [4]; by 48 hours): about 70%

Compound: CCCCCCCC/C=C\CCCCCCCC(=O)SCCNC(=O)CCNC(=O)[C@H](O)C(C)(C)COP(=O)(O)OP(=O)(O)OC[C@H]1O[C@@H](n2cnc3c(N)ncnc32)[C@H](O)[C@@H]1OP(=O)(O)O [18:1-CoA, 18:1-Coenzyme A]
- extent of ACCase inhibition (ACCase; crude extract, physiological range of concentrations): partial

Compound: Tween-40
- Relative 14C-acetate incorporation (% control) [1]: 84.4 ± 3.4 % control

Compound: Tween-18:1
- inhibition of acetate labeling of lipids ([1]; in words): maximum inhibition
- Relative 14C-acetate incorporation (% control) [1]: 51.5 ± 6.7 % control

Compound: CC(Oc1ccc(Oc2ncc(C(F)(F)F)cc2Cl)cc1)C(=O)O (centres unmarked) [haloxyfop]
- reduction in ACCase activity (ACCase; crude extracts treated with haloxyfop): about 15%

Compound: Tween-85
- Relative 14C-acetate incorporation (% control) [1]: 48.8 ± 5.9 % control
